Laboratory results taken from patent US20110166121A1 (LG LIFE SCIENCES LTD., priority 2008, published 2011).

How the values were obtained:
[1] = test system: Human platelet aggregation caused by ADP; assay: Inhibition of ADP-induced platelet aggregation (Mimic-human PRP); format: cell-based; settings: 20 μM ADP, human platelet concentrate diluted with PPP, absorption at 595 nm
Summary of the method: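 Ki came from non-linear sigmoidal fits of inhibition, measured as the 3-min rise in absorbance at 595 nm after 20 μM ADP, relative to 0/20 μM ADP controls. Platelets (3–4×10^8/mL in PPP-diluted human PRP) were exposed to 0.01–30 μM compound for 20 min at room temperature beforehand.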

[2] = molecular target: T1, Human P2Y12 receptor (Homo sapiens, UniProt Q9H244); assay: Human P2Y12 receptor cell membrane binding assay with [3H] 2-Mes-ADP; settings: 1 nM [3H] 2-Mes-ADP, membranes of HEK cells expressing P2Y12 receptor; read-out: Binding activity (IC50)
T1 construct: expressed in transfected cells; host or cells: HEK cells
Summary of the method: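 Competition binding used 1 nM [3H]2-MeS-ADP on P2Y12-expressing HEK cell membranes for 1 h at room temperature, followed by filtration and scintillation counting.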

T1 sequence (Q9H244 whole entry): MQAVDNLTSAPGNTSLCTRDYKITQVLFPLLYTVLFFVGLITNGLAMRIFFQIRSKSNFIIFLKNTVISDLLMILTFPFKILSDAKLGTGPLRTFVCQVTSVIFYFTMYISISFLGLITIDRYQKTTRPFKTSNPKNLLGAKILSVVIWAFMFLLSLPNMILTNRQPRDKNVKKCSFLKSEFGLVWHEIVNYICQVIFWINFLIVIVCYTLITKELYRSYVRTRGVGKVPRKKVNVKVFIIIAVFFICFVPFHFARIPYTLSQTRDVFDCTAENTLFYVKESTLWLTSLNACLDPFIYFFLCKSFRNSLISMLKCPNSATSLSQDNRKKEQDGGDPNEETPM

Structure (SMILES) | Ki [1] [nM] | IC50 [2] [nM]
CCCc1cc2c(N3CCn4c(nnc4C(F)(F)F)C3)nc(N3CC(=O)C(N)C3)nc2s1 (stereo not shown) [Example 1-115, 4-Amino-1-[6-propyl-4-(3-trifluoromethyl-5,6-dihydro-8H-[1,2,4]triazolo[4,3-a]pyrazin-7-yl)-thieno[2,3-d]pyrimidin-2-yl]-pyrrolidin-3-one] | 16 | 110
CCCc1cc2c(N3CCn4c(nnc4C(F)(F)F)C3)nc(N3CC(=NO)C(N)C3)nc2s1 (stereo not shown) [Example 1-116, 4-Amino-1-[6-propyl-4-(3-trifluoromethyl-5,6-dihydro-8H-[1,2,4]triazolo[4,3-a]pyrazin-7-yl)-thieno[2,3-d]pyrimidin-2-yl]-pyrrolidin-3-one oxime] | 28 | 70
CCCc1cc2c(N3CCn4c(nnc4C(F)(F)F)C3)nc(N3CC(=NOC)C(N)C3)nc2s1 (stereo not shown) [Example 1-117, 4-Amino-1-[6-propyl-4-(3-trifluoromethyl-5,6-dihydro-8H-[1,2,4]triazolo[4,3-a]pyrazin-7-yl)-thieno[2,3-d]pyrimidin-2-yl]-pyrrolidin-3-one O-methyl-oxime] | 42 | 220
CCCc1cc2c(N3CCn4c(nnc4C(F)(F)F)C3)nc(N3CC[C@H](NC(=O)Cc4c[nH]cn4)C3)nc2s1 [Example 1-120, 2-(1H-Imidazol-4-yl)-N-{(S)-1-[6-propyl-4-(3-trifluoromethyl-5,6-dihydro-8H-[1,2,4]triazolo[4,3-a]pyrazin-7-yl)-thieno[2,3-d]pyrimidin-2-yl]-pyrrolidin-3-yl}-acetamide] | 16 | 38
CCCc1cc2c(N3CCn4c(nnc4C(F)(F)F)C3)nc(NCCOCC)nc2s1 [Example 1-122, (2-Ethoxy-ethyl)-[6-propyl-4-(3-trifluoromethyl-5,6-dihydro-8H-[1,2,4]triazolo[4,3-a]pyrazin-7-yl)-thieno[2,3-d]pyrimidin-2-yl]-amine] | 467 | 220
CCCc1cc2c(N3CCn4c(nnc4C(F)(F)F)C3)nc(NCCOCCO)nc2s1 [Example 1-123, 2-{2-[6-Propyl-4-(3-trifluoromethyl-5,6-dihydro-8H-[1,2,4]triazolo[4,3-a]pyrazin-7-yl)-thieno[2,3-d]pyrimidin-2-ylamino]-ethoxy}-ethanol] | 367 | 260
CCCc1cc2c(N3CCn4c(nnc4C(F)(F)F)C3)nc(N3CCC[C@H](N)C3)nc2s1 [Example 1-125, (S)-1-[6-Propyl-4-(3-trifluoromethyl-5,6-dihydro-8H-[1,2,4]triazolo[4,3-a]pyrazin-7-yl)-thieno[2,3-d]pyrimidin-2-yl]-piperidin-3-ylamine] | 45 | 150
CCCc1cc2c(N3CCn4c(nnc4C(F)(F)F)C3)nc(N[C@H]3CCNC3)nc2s1 [Example 1-126, [6-Propyl-4-(3-trifluoromethyl-5,6-dihydro-8H-[1,2,4]triazolo[4,3-a]pyrazin-7-yl)-thieno[2,3-d]pyrimidin-2-yl]-(S)-pyrrolidin-3-yl-amine] | 29 | 130
CCCc1cc2c(N3CCn4c(nnc4C(F)(F)F)C3)nc(N3CCC(C(=O)NS(=O)(=O)Cc4ccccc4)CC3)nc2s1 [Example 1-127, C-Phenyl-N-{1-[6-propyl-4-(3-trifluoromethyl-5,6-dihydro-8H-[1,2,4]triazolo[4,3-a]pyrazin-7-yl)-thieno[2,3-d]pyrimidin-2-yl]-piperidine-4-carbonyl}-methanesulfonamide] | 900 | 100
CCCc1cc2c(N3CCn4c(nnc4C(F)(F)F)C3)nc(NCCN3CSCC3=O)nc2s1 [Example 1-128, 3-{2-[6-Propyl-4-(3-trifluoromethyl-5,6-dihydro-8H-[1,2,4]triazolo[4,3-a]pyrazin-7-yl)-thieno[2,3-d]pyrimidin-2-ylamino]-ethyl}-thiazolidin-4-one] | 61 | 100
CCCc1cc2c(N3CCn4c(nnc4C(F)(F)F)C3)nc(N[C@@H]3CCNC3)nc2s1 [Example 1-130, [6-Propyl-4-(3-trifluoromethyl-5,6-dihydro-8H-[1,2,4]triazolo[4,3-a]pyrazin-7-yl)-thieno[2,3-d]pyrimidin-2-yl]-(R)-pyrrolidin-3-yl-amine] | 132 | 320
CCCc1cc2c(N3CCn4c(nnc4C(F)(F)F)C3)nc(Nc3nc(C(=O)O)cs3)nc2s1 [Example 1-132, 2-[6-Propyl-4-(3-trifluoromethyl-5,6-dihydro-8H-[1,2,4]triazolo[4,3-a]pyrazin-7-yl)thieno[2,3-d]pyrimidin-2-ylamino]thiazole-4-carboxylic acid] | 100 | 47
CCCc1cc2c(N3CCn4c(nnc4C(F)(F)F)C3)nc(N3CCNc4ncccc43)nc2s1 [Example 1-134, 1-[6-Propyl-4-(3-trifluoromethyl-5,6-dihydro-8H-[1,2,4]triazolo[4,3-a]pyrazin-7-yl)thieno[2,3-d]pyrimidin-2-yl]-1,2,3,4-tetrahydro-pyrido[2,3-b]pyrazine] | 869 | 1000
CCc1cc2c(N3CCn4c(nnc4C(F)(F)F)C3)nc(N3CCNC(=O)C3)nc2s1 [Example 2-2, 4-[6-Ethyl-4-(3-trifluoromethyl-5,6-dihydro-8H-[1,2,4]triazolo[4,3-a]pyrazin-7-yl)-thieno[2,3-d]pyrimidin-2-yl]-piperazin-2-one] | 832 | 97
CCc1cc2c(N3CCn4c(nnc4C(F)(F)F)C3)nc(NCCO)nc2s1 [Example 2-5, 2-[6-Ethyl-4-(3-trifluoromethyl-5,6-dihydro-8H-[1,2,4]triazolo[4,3-a]pyrazin-7-yl)-thieno[2,3-d]pyrimidin-2-ylamino]-ethanol] | 857 | 710
CCc1cc2c(N3CCn4c(nnc4C(F)(F)F)C3)nc(N(CCO)CCO)nc2s1 [Example 2-6, 2-[[6-Ethyl-4-(3-trifluoromethyl-5,6-dihydro-8H-[1,2,4]triazolo[4,3-a]pyrazin-7-yl)-thieno[2,3-d]pyrimidin-2-yl]-(2-hydroxy-ethyl)-amino]-ethanol] | 715 | 835
CCc1cc2c(N3CCn4c(nnc4C(F)(F)F)C3)nc(N3CCNCC3)nc2s1 [Example 2-7, 7-(6-Ethyl-2-piperazin-1-yl-thieno[2,3-d]pyrimidin-4-yl)-3-trifluoromethyl-5,6,7,8-tetrahydro-[1,2,4]triazolo[4,3-a]pyrazine] | 669 | 210
CCc1cc2c(N3CCn4c(nnc4C(F)(F)F)C3)nc(N3CCN(C)CC3)nc2s1 [Example 2-10, 7-[6-Ethyl-2-(4-methyl-piperazin-1-yl)-thieno[2,3-d]pyrimidin-4-yl]-3-trifluoromethyl-5,6,7,8-tetrahydro-[1,2,4]triazolo[4,3-a]pyrazine] | 773 | 220
CC(C)c1cc2c(N3CCn4c(nnc4C(F)(F)F)C3)nc(N3CCNC(=O)C3)nc2s1 [Example 2-12, 4-[6-isopropyl-4-(3-trifluoromethyl-5,6-dihydro-8H-[1,2,4]triazolo[4,3-a]pyrazin-7-yl)-thieno[2,3-d]pyrimidin-2-yl]-piperazin-2-one] | 2900 | 460
CCCCc1cc2c(N3CCn4c(nnc4C(F)(F)F)C3)nc(N3CCNC(=O)C3)nc2s1 [Example 2-14, 4-[6-Butyl-4-(3-trifluoromethyl-5,6-dihydro-8H-[1,2,4]triazolo[4,3-a]pyrazin-7-yl)-thieno[2,3-d]pyrimidin-2-yl]-piperazin-2-one] | 329 | 100
